From patent US6645903B2, “Fluoroborane salts comprising a reactive cation and uses thereof” (Colorado State University Research Foundation, priority 2000, dated 2003)
Values belong to the substance of their own block, whether it stands above or below them.

How the values were obtained:
[1] = Stability in solution and on storage; assay type: physicochemical
Experimental: where R^1, R^2, Q, M^1, m, n, and q are those defined above. […] In addition, unlike many other aluminum metal catalysts, Compound of Formula IA has a relatively high solubility in aliphatic hydrocarbon solvents. For example, the compound AlMe2(1-Dd-CB11F11), where Dd is dodecyl, is soluble in hexanes and methylcyclohexane and stable for at least 10 days at 25° C.
A suspension of CPh3(1-Et-CB11F11) (0.412 g, 0.67 mmol) in pentane (40 ml) was treated with a solution of Si(i-Pr)3H (0.215 g, 1.36 mmol, 2 equiv.) in pentane (10 ml) for 20 hours at room temperature. The mixture was treated with more Si(i-Pr)3H (0.56 g, 3.54 mmol) for another 20 hours. (Note, that a large excess of Si(i-Pr)3H (˜7 equiv.) required for the reaction to go to completion. A slightly pink pentane solution was filtered from a small amount of red-brown oily solid (˜20 mg, which upon dissolving of in acetonitile was identified as a mixture of CPh3(1-Et-CB11F11) and [Si(i-Pr)3(CD3CN)][1-Et-CB11F11]. The volume of the pentane solution was reduced to ˜5 ml, which caused the formation of white solid. The solid was separated by filtration, washed three times with 1 ml of pentane and dried under nitrogen atmosphere inside the glove box. The yield of Si(i-Pr)3(1-Et-CB11F11) as an off-white crystalline solid was 0.198 g (56%). […]

[2] = Experimental: Hexanes and an excess of trimethylaluminum were removed under vacuum.
A mixture of [CPh3][(CH3)3NB12F11] […] A mixture was stirred under a nitrogen atmosphere for 20 h.
The orange microcrystalline compound (CPh3)2B12F12 (0.195 g, 0.231 mmol) was treated with 2 ml of toluene solution of AlMe3 (0.161 g, 2.240 mmol). […] The mixture was stirred for additional 40 hours.

[3] = Polymerization of ethylene in hexanes; conditions: hexanes solution, 24° C., 703 torr ethylene, 18 h
Experimental: A suspension of [CPh3][1-C12H25-CB11F11] (5.0 mg) in 0.5 ml of methylcyclohexane-d14 was treated with 0.5 ml of methylcyclohexane-d14 solution of Al(CH3)3 (2.2 mg) for 20 h. […] The filtrate was diluted with 7 ml of hexanes and transferred into a 50 ml Kontes tube. The solution was treated with 703 torr of ethylene for 18 h at 24° C. and small amount of white solid was formed. The mixture was treated with 3 ml of methanol for 20 minutes. A solid polyethylene was collected (3 mg) by filtration and characterized by DSC (Tm=126° C.).

[4] = Polymerization of ethylene with one equivalent of Cp2ZrMe2; conditions: with Cp2ZrMe2, hexanes, 660 torr ethylene, from ethylene pressure decrease
Experimental: A suspension of [CPh3][1-C12H25-CB11F11] (5.0 mg) in 0.5 ml of methylcyclohexane-d14 was treated with 0.5 ml of methylcyclohexane-d14 solution of Al(CH3)3 (2.2 mg) for 20 h. […] The filtrate was diluted with 7 ml of hexanes and transferred into a 50 ml Kontes tube. The solution was treated with 1 ml of hexanes solution of Cp2ZrMe2 (1.3 mg). The mixture was treated with 660 torr of ethylene. The ethylene pressure was decreased to 470 torr within 5 minutes due to the formation of polyethylene (white solid). More ethylene (812 torr) was added to the mixture and the ethylene pressure was decreased to 295 torr within the next 2 hours. The mixture was quenched with 5 ml of methanol and stirred for 20 minutes. A solid polyethylene was collected (210 mg) by filtration and characterized by DSC (Tm=129° C.). The catalytic activity during the first 5 minutes (good agitation) was calculated based on the ethylene pressure decrease and was at least 150 kg PE/mol Zr·h·atm.

[5] = Zirconocene catalyzed selective dimerization of 1-hexene; conditions: for turnovers number within the first five minutes: co-catalyst with Cp2ZrMe2, first five minutes
Experimental: A solution of Al(CH3)2(1-[…]-CB11F11) (6.1 mg, 10.8 μmol) in 0.28 ml of methylcyclohexane was treated with a solution of Cp2ZrMe2 (2.3 mg, 9.1 μmol) in 1-hexene (3.654 g). The resulted mixture was stirred under a nitrogen atmosphere and the samples were taken from the reaction mixture after 5 minutes and 55 minutes. According to ^1H NMR spectra of the reaction mixtures approximately 33% of 1-hexene were reacted within 5 minutes, and approximately 99% of 1-hexene were reacted within 55 minutes. The reaction was exothermic as indicated by the significant self-heating of the reaction mixture during the reaction. The reaction products were analyzed by ^1H, ^13C NMR and GC-MS. According to the analysis the reaction mixture contained 83% of 1-hexene dimerization products (more than 95% of 2-butyl-1-octene) and 17% of 1-hexene isomerization products (the distribution of hexene isomers was as follows: E-2 hexene-56%, Z-2 hexene-26%, E-3 hexene-15%, and Z-3 hexene-3%). The total turnovers number of the activated zirconocene catalyst was calculated to be 4780 (87 TON·min^−1). The turnovers number within the first five minutes of the reaction was approximately 315 TON·min^−1

[6] = Arene-olefin coupling of toluene-d8 with ethylene; conditions: toluene-d8, 656 torr ethylene, 14.5 hours, 24° C.
Experimental: Compounds of Formula IA are useful in a variety of organic reactions including in an arene-olefin coupling reaction. Thus, when the above reaction was repeated under one atmosphere of ethylene (CH2═CH2), a GC-MS analysis of the reaction mixture after 14.5 hr at 24° C. indicated the catalytic formation of all three positional isomers (i.e., the ortho (47%), meta (35%), and para (18%) isomers) of C6D4(CD3)(CH2CH2D) (the number of turnovers in this particular experiment was approximately 60-70. Without being bound any theory, the proposed catalytic scheme, which includes the catalytic activation of aromatic C—H bonds and the catalytic insertion of ethylene into an aluminum-aryl bond, is shown in FIG. 1 in a generic scheme using C6H6 as the substrate instead of C6D5CD3 for simplicity (the coordinated fluorocarborate anion (i.e., Q moiety) has also been omitted from the scheme for simplicity). It should be appreciated that the AlPh2^+1 species shown in FIG. 1 may in fact be a mixture of AlPh2^+1 and AlMePh^+1 species.
A compound Al(CH3)2(1-CH3-CB11F11) (2 mg) was dissolved in 1 ml of toluene-d8 and transferred into a sealable NMR tube. The solution was degassed under vacuum and treated with 656 torr of ethylene for 14.5 hours at 24° C. Proton NMR spectrum of the solution indicated the formation of ethyltoluene. […]

[7] = Alkylation of benzene with 1-hexene; conditions: benzene + 1-hexene, 25 hours
Experimental: A mixture of Al(CH3)2(1-CH3-CB11F11) (2.5 mg, 4.4 μmol), benzene (0.964 g, 12.4 mmol) and 1-hexene (0.224 g, 2.7 mmol) was stirred for 25 hours under a nitrogen atmosphere. […] A GC-MS analysis of the reaction mixture indicated the formation of monohexylbenzenes (29%), dihexylbenzenes (20%) and trihexylbenzenes (51%). The relative amounts of 2-phenylhexane and 3-phenylhexane were 70% and 30%, respectively. Total turnovers number of aluminum alkyl catalyst was calculated to be approximately 606 (24 TON/h).

[8] = cited from earlier work
[9] = cited from earlier work; remark: listed apart in the source
[10] = similar transformation, comparison value; cited from earlier work

- sensitivity to traces of water ([1]; solid, storage under nitrogen): extremely sensitive
Substance: Si(i-Pr)3(1-Et-CB11F11)

- solubility in acetonitrile-d3 [2]: completely dissolved
- solubility in toluene [2]: not soluble
Substance: Al(CH3)2((CH3)3NB12F11)

- stable in solution ([1]; hexanes and methylcyclohexane, 25° C.): at least 10 days
Substance: Al(CH3)2(1-C12H25-CB11F11)
- activity for polymerization of ethylene [3]: approximately 33 g PE/mol Al·h·at
- catalytic activity during the first 5 minutes [4]: at least 150 kg PE/mol Zr·h·atm
- total turnovers number of the activated zirconocene catalyst ([5]; co-catalyst with Cp2ZrMe2, 1-hexene, 55 minutes): 4780
- turnover rate over whole reaction ([5]; co-catalyst with Cp2ZrMe2, 55 minutes): 87 TON·min^−1
- turnovers number within the first five minutes [5]: 315 TON·min^−1
- turnovers number within the first five minutes ([5]; listed as Al(CH3)2(1-C2H25-CB11F11)): approximately 315 TON·min^−1
- 1-hexene reacted ([5]; within 5 minutes): approximately 33%
- 1-hexene reacted ([5]; within 55 minutes): approximately 99%

- solubility in acetonitrile-d3 [2]: dissolved
- solubility in toluene [2]: not soluble
Substance: (AlMe2)2B12F12

Substance: Al(CH3)2(1-CH3-CB11F11)
- number of turnovers (TON), formation of ethyltoluene [6]: approximately 66
- number of turnovers (TON), formation of ethyltoluene ([6]; listed as AlMe2(1-Me-CB11F11)): 60-70
- total turnovers number of aluminum alkyl catalyst [7]: approximately 606
- turnover rate [7]: 24 TON/h

Substance: methylalurnoxane [MAO]
- solubility in aliphatic hydrocarbon solvents [8]: limited solubilities
- stability when stored in solution [9]: not stable
- activity, conventional co-catalyst [10]: 30 TON ·min^−1
- total turnovers number of the catalyst, conventional co-catalyst [10]: 500
